Experiments:
Format in all cases: physicochemical
[1] = Particle size distribution by laser diffraction (wet dispersion); conditions: isolated amorphous elagolix sodium powder
Method: Particle size distribution was measured by laser diffraction using a Malvern Mastersizer 2000S (Malvern Panalytical Ltd., Malvern, United Kingdom) in the wet dispersion mode. The liquid dispersion accessory was first filled with a solution of 0.025% w/v lecithin in HPLC n-heptane. After laser background intensity was measured, approximately 40 mg of sample was added directly to the liquid dispersion accessory to obtain a target laser obscuration between 5 and 22%. Particle size distribution measurement was started immediately upon addition of the sample. The following method parameters were used: Calculation theory—Mie; Measurement model—general purpose; Measurement sensitivity—normal; Dispersant refractive index—1.39; Background time—30 s; Measurement time—30 s; Stirrer speed—1500 rpm; Measurement cycle—1.

[2] = Bulk density in a graduated cylinder; conditions: isolated amorphous elagolix sodium powder
Method: The bulk density of the sample was obtained by measurement in a graduated cylinder. A 50 mL graduated cylinder (readable to 1 mL) was used in all measurement. First, the tared weight of the cylinder was obtained with a balance (readable to ±0.01 g). Sufficient amount of sample was then transferred into the cylinder, gently to avoid compaction of the sample, to a volume between 30 and 50 mL. The total weight of the sample and cylinder was then measured with the balance (readable to ±0.01 g), and the net sample weight was calculated. The bulk density is the weight of the sample divided by the apparent volume (to the nearest graduated unit).

[3] = Flow properties, Schulze ring shear tester (flow function coefficient); conditions: isolated amorphous elagolix sodium powder, ffc=σ/fc
Method: Flow properties of each sample were characterized using a Schulze ring shear tester RST-XS (Dietmar Schulze Schuttgutmesstechnik, Wolfenbiittel, Germany). A standard annular cell of a cross-sectional area of 24 cm^2 and a volume of 30 cm^3 is used to measure the yield loci. All experiments were performed under ambient conditions immediately after the sample was removed from the sample container. During each measurement, the powder sample was first pre-sheared under a pre-consolidation stress of 1 kPa until a steady-state was reached. The pre-sheared powder was then subjected to shear under four normal stress levels of […] to obtain the yield locus (plot of shear stress at failure as a function of the normal stress). Between each shear points, the sample was pre-consolidated at 1 kPa. From the yield locus, the major principle stress (σ) and unconfined yield strength (fc) were derived by drawing two critical Mohr stress circles with the software RST-CONTROL 95 (Dietmar Schulze Schuttgiit-messtechnik, Wolfenbiittel, Germany). The major principle stress (σ) was obtained from the Mohr stress circle which is tangential to the yield locus and intersects at the point of normal and shear stresses at steady state flow. The unconfined yield strength (fc) was obtained from the Mohr stress circle which is tangential to the yield locus and runs through the origin. Flow function coefficient (ffc=σ/fc) was used to characterize the flow of the powder sample.

[4] = Dry glass transition temperature of amorphous form
[5] = BET specific surface area from nitrogen adsorption isotherm; conditions: isolated amorphous elagolix sodium powder, precipitation/isolation conditions vary per example
Method: The BET (Brunauer, Emmett and Teller) specific surface area was determined from nitrogen adsorption isotherm at 77° K using a surface area analyzer (Tristar 3020, Micromeritics, Norcross, Ga.). A sample of approximately 1-2 g was first outgassed under vacuum for 2 hours at 50° C. prior to nitrogen adsorption experiment. The multipoint measurement method was used according to USP <846>. The quantity adsorbed was measured between 0.05 and 0.3 relative pressure. A minimum of 5 data points between this pressure range was determined to obtain the specific surface area using the BET equation.

volume-averaged particle size Dv10 ([1]; listed as Example 14): 9 μm | volume-averaged particle size Dv10 ([1]; listed as Example 15): 17 μm | volume-averaged particle size Dv10 ([1]; listed as Example 17): 6 μm | volume-averaged particle size Dv10 ([1]; listed as Example 18): 204 μm | bulk density ([2]; listed as Example 17): 0.17 g/mL | bulk density ([2]; listed as Example 18): 0.33 g/mL | flow function coefficient (ffc) ([3]; listed as Example 14): 1.8 | flow function coefficient (ffc) ([3]; listed as Example 15): 2.8 | flow function coefficient (ffc) ([3]; listed as Example 17): 1.2 | flow function coefficient (ffc) ([3]; listed as Example 18): 6.8 | dry glass transition temperature (Tg) [4]: about 108 °C | specific surface area ([5]; listed as Example 14): 10.4 m^2/g | specific surface area ([5]; listed as Example 15): 49.0 m^2/g | specific surface area ([5]; listed as Example 16): 0.3 m^2/g | specific surface area ([5]; listed as Example 17): 35.3 m^2/g | specific surface area ([5]; listed as Example 18): 32.2 m^2/g
Compound: COc1cccc(-c2c(C)n(Cc3c(F)cccc3C(F)(F)F)c(=O)n(C[C@H](NCCCC(=O)[O-])c3ccccc3)c2=O)c1F.[Na+] [Compound (I), sodium 4-({(1R)-2-[5-(2-fluoro-3-methoxyphenyl)-3-{[2-fluoro-6-(trifluoromethyl)phenyl]methyl}-4-methyl-2,6-dioxo-3,6-dihydropyrimidin-1(2H)-yl]-1-phenylethyl}amino)butanoate]

Source: US11542239B2, “Elagolix sodium compositions and processes” (AbbVie Inc., priority 2018, dated 2023)
